Legend:
[1] = tested on: F/L-HERc cells; experiment: Inhibition of IL-3-dependent proliferation of F/L-HERc cells; assay type: cell-based; details: Mus musculus, murine IL-3, 48 hours
From the text: (§1) The inhibition of EGF-R-mediated signal transmission can be detected, for example, with cells which express human EGF-R, the survival and proliferation of which depend on stimulation by EGF or TGF-alpha. An interleukin-3 (IL-3)-dependent cell line of murine origin which was changed genetically such that it expresses functional human EGF-R was used here. The proliferation of these cells, called F/L-HERc, can therefore be stimulated either by murine IL-3 or by EGF (see von Ruden, T. et al. in EMBO J. 7, 2749-2756 (1988) and Pierce, J. H. et al. in Science 239, 628-631 (1988)).
(§2) The starting material used for the F/L-HERc cells was the cell line FDC-P1, the preparation of which has been described by Dexter, T. M. et al. in J. Exp. Med. 152, 1036-1047 (1980). Alternatively, however, other growth factor-dependent cells can also be used (see, for example, Pierce, J. H. et al. in Science 239, 628-631 (1988), Shibuya, H. et al. in Cell 70, 57-67 (1992) and Alexander, W. S. et al. in EMBO J. 10, 3683-3691 (1991)). Recombinant retroviruses were used for expression of the human EGF-R cDNA (see Ullrich, A. et al. in Nature 309, 418-425 (1984)), as described in yon Ruden, T. et al., EMBO J. 7, 2749-2756 (1988), with the difference that the retroviral vector LXSN (see Miller, A. D. et al. in BioTechniques 7, 980-990 (1989)) was used for expression of the EGF-R cDNA and the line GP+E86 (see Markowitz, D. et al. in J. Virol. 62, 1120-1124 (1988)) was used as the packing cell.
(§3) The test was carried out as follows:
(§4) F/L HERc cells were cultured at 37° C. and 5% CO2 in RPMI/1640 medium (BioWhittaker), supplemented with 10% foetal bovine serum (FCS, Boehringer Mannheim), 2 mM glutamine (BioWhittaker), standard antibiotics and 20 ng/ml of human EGF (Promega). For investigation of the inhibitory activity of the compounds according to the invention, 1.5×10^4 cells per well were cultured in triplicate in 96-well plates in the above medium (200 μl), proliferation of the cells being stimulated with either EGF (20 ng/ml) or murine IL-3. Culture stocks of the cell line X63/0 mIL-3 were used as the source for IL-3 (see Karasuyama, H. et al. in Eur. J. Immunol. 18, 97-104 (1988)). The compounds according to the invention were dissolved in 100% dimethyl sulphoxide (DMSO) and added to the cultures in various dilutions, the maximum DMSO concentration being 1%. The cultures were incubated at 37° C. for 48 hours.
(§5) To determine the inhibitory activity of the compounds according to the invention, the relative cell count was measured in OD units with Cell Titer 96™ Aqueous Non-Radioactive Cell Proliferation Assay (Promega). The relative cell count was calculated in per cent of the control (F/LHERc cells without inhibitor) and the active compound concentration which inhibits the proliferation of the cells to 50% (IC50) was deduced.

[2] = target: T1, human EGF-R (Homo sapiens, UniProt P00533); experiment: Inhibition of EGF-dependent proliferation of F/L-HERc cells; assay type: cell-based; details: human EGF 20 ng/ml, 48 hours
T1 construct: expressed in transfected cells; host or cells: F/L-HERc cells: murine IL-3-dependent line FDC-P1 infected with recombinant retrovirus (LXSN vector, GP+E86 packaging line) carrying human EGF-R cDNA
T1 sequence (P00533 25-1210): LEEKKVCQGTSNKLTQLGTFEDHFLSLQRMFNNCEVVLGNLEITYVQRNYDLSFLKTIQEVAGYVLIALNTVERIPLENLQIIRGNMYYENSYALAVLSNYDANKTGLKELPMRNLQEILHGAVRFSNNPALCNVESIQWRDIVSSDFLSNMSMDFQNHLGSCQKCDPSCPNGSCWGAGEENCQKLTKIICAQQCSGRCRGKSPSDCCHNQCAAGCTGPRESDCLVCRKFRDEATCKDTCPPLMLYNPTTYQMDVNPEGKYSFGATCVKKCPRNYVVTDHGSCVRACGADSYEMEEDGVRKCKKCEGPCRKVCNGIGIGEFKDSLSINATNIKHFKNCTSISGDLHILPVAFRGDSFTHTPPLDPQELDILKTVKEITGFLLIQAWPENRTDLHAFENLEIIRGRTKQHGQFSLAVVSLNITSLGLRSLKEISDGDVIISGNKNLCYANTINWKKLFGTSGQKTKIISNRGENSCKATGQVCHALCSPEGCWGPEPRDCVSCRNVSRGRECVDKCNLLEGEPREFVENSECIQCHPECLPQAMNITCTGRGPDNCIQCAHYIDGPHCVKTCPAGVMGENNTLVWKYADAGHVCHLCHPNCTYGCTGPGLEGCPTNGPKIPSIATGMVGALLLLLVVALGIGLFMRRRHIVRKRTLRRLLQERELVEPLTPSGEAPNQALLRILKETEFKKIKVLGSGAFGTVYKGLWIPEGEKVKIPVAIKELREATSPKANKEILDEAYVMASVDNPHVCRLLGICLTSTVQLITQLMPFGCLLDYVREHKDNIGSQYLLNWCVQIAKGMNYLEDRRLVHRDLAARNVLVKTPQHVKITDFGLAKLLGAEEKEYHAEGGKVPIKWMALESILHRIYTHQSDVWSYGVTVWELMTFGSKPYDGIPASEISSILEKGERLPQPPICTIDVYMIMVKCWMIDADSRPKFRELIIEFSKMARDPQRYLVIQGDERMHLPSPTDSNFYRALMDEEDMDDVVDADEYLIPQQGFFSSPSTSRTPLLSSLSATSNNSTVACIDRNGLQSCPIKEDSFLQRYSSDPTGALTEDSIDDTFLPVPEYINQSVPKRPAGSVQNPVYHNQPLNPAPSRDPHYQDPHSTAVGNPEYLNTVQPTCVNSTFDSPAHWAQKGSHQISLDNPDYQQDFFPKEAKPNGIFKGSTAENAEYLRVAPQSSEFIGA
From the text: as §1, §2, §3, §4, §5

IC50 [2] [nM] | Compound | IC50 [1] [nM]
32 | N#Cc1cc(Nc2ncnc3cnc(N[C@H]4CC[C@H](O)CC4)nc23)ccc1N [1(201), 4-[(4-Amino-3-cyano-phenyl)amino]-6-[(trans-4-hydroxycyclohexyl)-amino]-pyrimido[5,4-d]pyrimidine] | > 10000
32 | Cc1cccc(Nc2ncnc3cnc(N4CCC(N)CC4)nc23)c1 [1(61), 4-[(3-Methylphenyl)amino]-6-(4-amino-1-piperidinyl)-pyrimido[5,4-d]pyrimidine] | 9000
8 | Fc1ccc(Nc2ncnc3cnc(NCCN4CCOCC4)nc23)cc1Cl [1(129), 4-[(3-Chloro-4-fluoro-phenyl)amino]-6-[2-(morpholino)-ethylamino]-pyrimido[5,4-d]pyrimidine] | > 20000
4 | Cc1cccc(Nc2ncnc3cnc(Nc4ccc(N5CCCC5CO)cc4)nc23)c1 (stereo not shown) [1(193), 4-[(3-Methylphenyl)amino]-6-[4-(2-hydroxymethyl-1-pyrrolidinyl)phenylamino]-pyrimido[5,4-d]pyrimidine] | 10000
1000 | COc1ncc2ncnc(Nc3cccc(C)c3)c2n1 [1(5), 4-[(3-Methylphenyl)amino]-6-methoxy-pyrimido[5,4-d]pyrimidine] | > 10000
15 | N#Cc1cccc(Nc2ncnc3cnc(NC4CC4)nc23)c1 [3(19), 4-[(3-Cyanophenyl)amino]-6-(cyclopropylamino)-pyrimido[5,4-d]pyrimidine] | > 3000
50 | Fc1cc(F)cc(Nc2ncnc3cnc(NC4CC4)nc23)c1 [3(5), 4-[(3,5-Difluorophenyl)amino]-6-(cyclopropylamino)-pyrimido[5,4-d]pyrimidine] | > 3000
20 | O=[N+]([O-])c1cccc(Nc2ncnc3cnc(NC4CC4)nc23)c1 [3(45), 4-[(3-Nitrophenyl)amino]-6-(cyclopropylamino)-pyrimido[5,4-d]pyrimidine] | > 1000
2000 | Brc1cccc(Nc2ncnc3cncnc23)c1 [4(1), 4-[(3-Bromophenyl)amino]-pyrimido[5,4-d]pyrimidine] | > 10000
2 | O[C@H]1CC[C@H](Nc2ncc3ncnc(Nc4cccc(Cl)c4)c3n2)CC1 [1(110), 4-[(3-Chlorophenyl)amino]-6-[(trans-4-hydroxycyclohexyl)amino]pyrimido[5,4-d]pyrimidine] | > 10000
300 | Cc1cccc(Nc2ncnc3cnc(N)nc23)c1 [1(13), 4-[(3-Methylphenyl)amino]-6-amino-pyrimido[5,4-d]pyrimidine] | > 10000
25 | C#CCNc1ncc2ncnc(Nc3cccc(C)c3)c2n1 [1(23), 4-[(3-Methylphenyl)amino]-6-(propargylamino)-pyrimido[5,4-d]pyrimidine] | > 3000
500 | CCN(CC)c1ncc2ncnc(Nc3cccc(C)c3)c2n1 [1(10), 4-[(3-Methylphenyl)amino]-6-(diethylamino)-pyrimido[5,4-d]pyrimidine] | > 10000
50 | FC(F)(F)Oc1cccc(Nc2ncnc3cnc(NC4CC4)nc23)c1 [3(18), 4-[(3-Trifluoromethoxyphenyl)amino]-6-(cyclopropylamino)-pyrimido[5,4-d]pyrimidine] | > 3000
15 | Cc1cccc(Nc2ncnc3cnc(NC4CCOCC4)nc23)c1 [1(170), 4-[(3-Methylphenyl)amino]-6-(4-tetrahydropyranylamino)-pyrimido[5,4-d]pyrimidine] | > 10000
13 | Cc1cccc(Nc2ncnc3cnc(N[C@H]4CC[C@H](C(=O)O)CC4)nc23)c1 [1(134), 4-[(3-Methylphenyl)amino]-6-[trans-4-carboxy-cyclohexylamino]-pyrimido[5,4-d]pyrimidine] | > 10000
0.8 | O[C@H]1CC[C@H](Nc2ncc3ncnc(Nc4ccc(F)c(Cl)c4)c3n2)CC1 [1(204), 4-[(3-Chloro-4-fluoro-phenyl)amino]-6-[(trans-4-hydroxycyclohexyl)-amino]-pyrimido[5,4-d]pyrimidine] | > 10000
50 | Cc1cccc(Nc2ncnc3cnc(N[C@H]4CC[C@H](NC(=O)OC(C)(C)C)CC4)nc23)c1 [1(108), 4-[(3-Methylphenyl)amino]-6-[(trans-4-tert-butyloxycarbonylamino-cyclohexyl)amino]pyrimido[5,4-d]pyrimidine] | > 10000
20 | Cc1cccc(Nc2ncnc3cnc(NC(C)CO)nc23)c1 (stereo not shown) [1(58), 4-[(3-Methylphenyl)amino]-6-(1-hydroxy-2-propylamino)pyrimido[5,4-d]pyrimidine] | > 3000
5 | Cc1cccc(Nc2ncnc3cnc(N[C@H]4CC[C@H](C(=O)N5CCOCC5)CC4)nc23)c1 [1(140), 4-[(3-Methylphenyl)amino]-6-[trans-4-(morpholinocarbonyl)cyclohexylamino]-pyrimido[5,4-d]pyrimidine] | > 10000
5 | CC(CO)(CO)Nc1ncc2ncnc(Nc3ccc(Cl)c(F)c3)c2n1 [1(183), 4-[(4-Chloro-3-fluoro-phenyl)amino]-6-(1,3-dihydroxy-2-methyl-2-propylamino)-pyrimido[5,4-d]pyrimidine] | > 20000
900 | Cc1cccc(Nc2ncnc3cnc(NCC4COCCOCCOCCOCCO4)nc23)c1 (stereo not shown) [1(197)] | 10000
2500 | Cc1cccc(Nc2ncnc3cnc(N4CCN(c5ccccc5)CC4)nc23)c1 [1(3), 4-[(3-Methylphenyl)amino]-6-(1-phenyl-4-piperazinyl)-pyrimido[5,4-d]pyrimidine] | > 10000
40 | Cc1cccc(Nc2ncnc3cnc(NC4CCN(C)CC4)nc23)c1 [1(62), 4-[(3-Methylphenyl)amino]-6-[(1-methyl-4-piperidinyl)amino]-pyrimido[5,4-d]pyrimidine] | > 1000
15 | Cc1cccc(Nc2ncnc3cnc(NC4CCC(=O)CC4)nc23)c1 [1(109), 4-[(3-Methylphenyl)amino]-6-[(4-oxo-cyclohexyl)amino]pyrimido[5,4-d]pyrimidine] | 10000
2 | Nc1c(Cl)cc(Nc2ncnc3cnc(N[C@H]4CC[C@H](O)CC4)nc23)cc1Cl [1(207), 4-[(4-Amino-3,5-dichloro-phenyl)amino]-6-[(trans-4-hydroxycyclohexyl)-amino]-pyrimido[5,4-d]pyrimidine] | > 10000

Reference: US5707989A, “Pyrimido[5,4-D]pyrimidines, medicaments comprising these compounds, their use and processes for their preparation” (Dr. Karl Thomae GmbH, priority 1994, dated 1998)
